System: PC-3
Experiment: Cytotoxicity against human PC3 cells by MTT assay; call rule not given here
Format: functional, cell-based

SMILES	IC50
N=C(N)NCCC[C@@H](NC(=O)c1cccc(O)c1O)C(=O)N[C@@H](COC(=O)[C@H](COC(=O)[C@H](CO)NC(=O)[C@@H](CCCNC(=N)N)NC(=O)c1cccc(O)c1O)NC(=O)[C@@H](CCCNC(=N)N)NC(=O)c1cccc(O)c1O)C(=O)O [TRIVANCHROBACTIN]	Not Active
N=C(N)NCCC[C@@H](NC(=O)c1cccc(O)c1O)C(=O)N[C@@H](COC(=O)[C@H](CO)NC(=O)[C@@H](CCCNC(=N)N)NC(=O)c1cccc(O)c1O)C(=O)O [DIVANCHROBACTIN]	Not Active
N=C(N)NCCC[C@@H](NC(=O)c1cccc(O)c1O)C(=O)N[C@@H](CO)C(=O)O [VANCHROBACTIN]	Not Active

From ChEMBL document CHEMBL1166002, “Vanchrobactin and anguibactin siderophores produced by Vibrio sp. DS40M4” (J Nat Prod, 2010)
